Earlier results, collected in patent US20180185375A1, “COMPOSITIONS AND METHODS FOR THE TREATMENT OF SUBSTANCE USE DISORDERS, ADDICTION, AND PSYCHIATRIC DISORDERS” (EMBERA NEUROTHERAPEUTICS, INC., priority 2015, published 2018).

How the values were obtained:
[1] = test system: cortisol levels; conditions: healthy subjects
[2] = test system: cocaine self-administration in rats
[3] = test system: adrenal gland; conditions: in vivo
[4] = 12.5 mg/kg metyrapone tested alone, rats

CCOC(=O)c1cncn1[C@H](C)c1ccccc1 [etomidate]
time after which infusion resulted in significant suppression of cortisol levels [1]: 5 h | time of maximal effects on cortisol levels ([1]; infusion): 11 h

Cc1nnc2n1-c1ccc(Cl)cc1C(c1ccccc1)=NC2 [alprazolam]
effect of the dose alone on cocaine self-administration ([2]; alprazolam 1.0 mg/kg, ip, alone): ineffective

CC(C)(C(=O)c1cccnc1)c1cccnc1 [metyrapone]
effect on cocaine-maintained responding [2, 4]: no effect | effect on food-maintained responding [2, 4]: no effect

Clc1ccc(C(c2ccccc2Cl)C(Cl)Cl)cc1 (stereo not drawn) [Mitotane]
doses at which it is an adrenolytic agent [3]: greater than 4 g per day
